This note sets out measurements from patent publication US8795734B2, “Hydrophobic nanotubes and nanoparticles as transporters for the delivery of drugs into cells” (The Board of Trustees of the Leland Stanford Junior …, priority 2005, dated 2014).

One experiment concerns myc. Nature of the experiment: Western blot of myc after c-myc siRNA delivery in 4188 cells. It is filed as cell-based. Here is the method:
Typical incubations were carried out by incubating 4188 cells with the NT conjugates for periods ranging from 12-14 h at 37° C. and 5% CO2 atmosphere. In addition to our positive incubation with our disulfide containing conjugate, SWNT-SS-siRNAmyc (typical [NT} ≈20 nM and [siRNA] ≈500 nM in incubation), control incubations were also carried out with DOX at a concentration 2 ng/mL, commercially available transfecting agent lipofectamine-myc complex and finally with a mixture of SWNT suspension and myc siRNA solution.
The proliferation of the cells was also examined by the use of a colorimetric MTS-based assay. […] In order to verify that the decrease in cell viability and proliferation was in fact a result of the knockdown of myc in the lymphoma cells, western blots were performed on the respective cellysates. The myc band was absent for the SWNT-SS-siRNAmyc and DOX treated cell.
(Immunoblotting shows a protein as a band on a membrane.)

For the next experiment, the system named is 4188 cells. Nature of the experiment: Cell density, cell death and proliferation of lymphoma cells after c-myc siRNA delivery. It is filed as cell-based, mice. The settings on record: approximately 24 h treatment, light microscopy. As to the method: These conjugates were used to treat T-cell lymphoma cells, 4188 cells, which were derived from mice overexpressing human myc. Control experiments were also performed where the 4188 cells were exposed to a mixture of SWNT and siRNAmyc (no covalent linkage), to lipofectamine-siRNAmyc complex or to the antibiotic doxicycline (DOX). The 4188 cells used in this experiment had been previously engineered to be tet-regulatable such that the myc gene can be turned off by treatment with DOX.
The 4188 cells are non-adherent cells, typically cultured in RPMI 1640 medium supplemented with fetal bovine serum, penicillin/streptomycin and betamercaptoethanol. The cells were engineered to have tet-regulatable MYC, which can be regulated by the antibiotic doxicycline (DOX). 4188 cells are further described at Jain, M. et al. Sustained loss of a neoplastic phenotype by brief inactivation of MYC. Science 297, 102-104 (2002). […]
The cell proliferation was determined by using the CellTiterA96 assay (Promega). […]
Cell death was monitored in the cells by cell cytometry. […]

Molecules are shown by their SMILES.

Turning to `C[C@H]1c2cccc(O)c2C(O)=C2C(=O)[C@]3(O)C(O)=C(C(N)=O)C(=O)[C@@H](N(C)C)[C@@H]3[C@@H](O)[C@@H]21` [DOX, doxicycline], in the experiment on myc, the “myc band in western blot” value is recorded as “absent”. For the same compound, the cell density entry in the experiment with 4188 cells was “some reduction in the cell density”.
